The text below walks through data of patent publication US10882856B2 (BeiGene, Ltd., priority 2017, dated 2021).

The target of assay [1] is T1, IDO1 (Homo sapiens, UniProt P14902). The assay is described as follows: IDO1 enzymatic assay. The format is biochemical. More on the design: His tag (N); made in house; host or cells: E. coli. The following applies: read-out: Enzyme IC50 IDO1. The gist of the method:
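Recombinant N-terminally His-tagged IDO1 purified from E. coli (50 nM) was incubated with compound or DMSO and 1.3 mM D-tryptophan, 5 mM L-ascorbic acid, methylene blue and 0.4 mg/mL catalase. The buffer was 50 mM potassium phosphate pH 7.5 with 0.1% BSA, at 24 °C for 1.5 hours. N'-formylkynurenine formation was then read continuously at 321 nm for 1 hour, and activity was taken as the slope. IC50 was calculated from remaining enzyme activity across increasing compound concentrations.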

The target in assay [2] is T2, cellular TDO2 in HEK293-TDO2 cells (Homo sapiens, UniProt P48775).
T2 construct: expressed in transfected cells; host or cells: HEK293 (ATCC), stably transfected
T2 sequence (P48775 whole entry): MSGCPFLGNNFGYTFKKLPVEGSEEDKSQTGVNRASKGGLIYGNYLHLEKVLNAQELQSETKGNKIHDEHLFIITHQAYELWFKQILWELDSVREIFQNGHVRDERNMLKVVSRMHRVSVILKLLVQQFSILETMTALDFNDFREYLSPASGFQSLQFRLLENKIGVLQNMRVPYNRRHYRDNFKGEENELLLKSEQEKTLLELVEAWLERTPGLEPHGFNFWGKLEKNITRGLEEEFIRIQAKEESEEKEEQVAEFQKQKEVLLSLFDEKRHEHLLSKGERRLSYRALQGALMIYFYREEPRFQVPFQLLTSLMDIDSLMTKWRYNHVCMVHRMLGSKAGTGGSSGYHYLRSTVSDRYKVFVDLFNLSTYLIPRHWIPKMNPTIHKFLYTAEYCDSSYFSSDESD
Description: 293-TDO2 cell-based assay (Kyn colorimetric). The following applies: 48 hours of incubation. In a few lines:
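HEK293 cells stably expressing TDO2 (10000/well, phenol red-free DMEM, 10% FBS) were dosed 4 h after plating and incubated 48 h at 37° C. Supernatant Kyn was measured after TCA precipitation by 4-(dimethylamino)benzaldehyde colour at 480 nm. IC50 came from four-parameter logistic fits.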

Assay [3] addresses T1, IDO1. The assay is described as follows: Hela cell-based IDO1 assay. The following applies: Hela cells. The gist of the method: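 HeLa cells were seeded at 8000 per well in 96-well plates in phenol red-free DMEM with 10% FBS. After 4 hours, DMSO-diluted compound dilutions were added with IFN-γ (final 100 ng/mL) and 0.4 mM L-Trp, and cells were kept 48 hours at 37 °C, 5% CO2. Supernatant was deproteinised with trichloroacetic acid, and kynurenine was measured at 480 nm after adding 2% 4-(dimethylamino)benzaldehyde. Potency came from four-parameter logistic fits in XLfit.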

pEC50, pIC50: −log10 of the molar value.

T1 sequence (P14902 whole entry): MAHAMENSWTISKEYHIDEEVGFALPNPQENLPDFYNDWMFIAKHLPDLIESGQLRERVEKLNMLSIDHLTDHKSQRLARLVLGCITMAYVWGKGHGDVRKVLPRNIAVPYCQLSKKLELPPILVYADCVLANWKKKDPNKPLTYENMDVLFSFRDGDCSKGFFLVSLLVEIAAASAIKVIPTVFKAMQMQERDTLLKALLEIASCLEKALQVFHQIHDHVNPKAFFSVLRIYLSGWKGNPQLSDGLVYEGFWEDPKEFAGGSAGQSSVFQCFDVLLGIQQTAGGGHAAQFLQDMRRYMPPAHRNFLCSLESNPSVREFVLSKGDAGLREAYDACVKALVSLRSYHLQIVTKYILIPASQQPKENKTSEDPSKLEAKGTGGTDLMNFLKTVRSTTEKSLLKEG

The pIC50 is the negative decadic logarithm of the IC50, by convention in mol/L. The term pEC50 denotes the EC50 on a negative log10 scale, so that one unit is a factor of ten. Turning to `COc1ccc([C@H]2CC[C@H]([C@@H](O)c3c(C4CC4)ccn4cncc34)CC2)cc1` [Example C101b, (R)-(7-cyclopropylimidazo[1,5-a]pyridin-8-yl)(4-(4-methoxyphenyl)cyclohexyl)methanol], the negative-log IC50 (pIC50) on IDO1 [1] was 5.03. Moreover, the negative logarithm of the EC50 (pEC50) (in assay [2]; on IDO1 [3]) was below 5.00 each time.
Take `Cc1ccccc1C1CCC(C(O)c2c(C3CC3)ccn3cncc23)CC1` (stereo not drawn) [Example C112, (7-cyclopropylimidazo[1,5-a]pyridin-8-yl)(4-(o-tolyl)cyclohexyl)methanol]: on IDO1 [1], the pIC50 was 7.04. The figures for the negative logarithm of the EC50 (pEC50) (in assay [2]; at IDO1 [3]) were below 5.00 and 6.55, respectively.
On the same counts, the results for `COc1ccccc1C1CCC(C(O)c2c(C3CC3)ccn3cncc23)CC1` (stereo not drawn) [Example C113, (7-Cyclopropylimidazo[1,5-a]pyridin-8-yl)(4-(2-methoxyphenyl)cyclohexyl)methan] are 7.26, below 5.00 and 6.83.
Take `COc1cccc(C2CCC(C(O)c3c(C4CC4)ccn4cncc34)CC2)c1` (stereo not drawn) [Example C114, (7-cyclopropylimidazo[1,5-a]pyridin-8-yl)(4-(3-methoxyphenyl)cyclohexyl)methanol]: the pIC50 on IDO1 [1] is 7.29. In addition, the pEC50 in assay [2] was below 5.00; at IDO1 [3], 6.71.
On to `OC(c1c(C2CC2)ccn2cncc12)C1CCC(c2ccccc2C(F)(F)F)CC1` (stereo not drawn) [Example C116], for which, at IDO1 [1], the pIC50 was 6.80. For the same molecule, the values for the pEC50 (in assay [2]; at IDO1 [3]) were below 5.00 and 5.96, respectively.
With `OC(c1c(C2CC2)ccn2cncc12)C1CCC(c2ccc(OC3COC3)cc2)CC1` (stereo not drawn) [Example C117, (7-cyclopropylimidazo[1,5-a]pyridin-8-yl)(4-(4-(oxetan-3-yloxy)phenyl)cyclohexyl)methanol], the pIC50 on IDO1 [1] was 7.46. The negative-log EC50 (pEC50) in assay [2] is below 5.00; at IDO1 [3], 6.74.
As to `OC(c1c(C2CC2)ccn2cncc12)C1CCC(c2ccc(OC3CCCC3)cc2)CC1` (stereo not drawn) [Example C118, (4-(4-(cyclopentyloxy)phenyl)cyclohexyl)(7-cyclopropylimidazo[1,5-a]pyridin-8-yl)methanol], the negative logarithm of the IC50 (pIC50) at IDO1 [1] is 6.92. The pEC50 is below 5.00 in assay [2] and 6.59 on IDO1 [3].
On the same counts, the results for `OC(c1c(C2CC2)ccn2cncc12)C1CCC(c2ccc(OC3CCOCC3)cc2)CC1` (stereo not drawn) [Example C119, (7-cyclopropylimidazo[1,5-a]pyridin-8-yl)(4-(4-((tetrahydro-2H-pyran-4-yl)oxy)phenyl)cyclohexyl)methanol] are 7.41, below 5.00 and 6.83.
On the same counts, the results for `OC(c1c(C2CC2)ccn2cncc12)C1CCC(c2ccc(C(F)(F)F)nc2)CC1` (stereo not drawn) [Example C120, (7-cyclopropylimidazo[1,5-a]pyridin-8-yl)(4-(6-(trifluoromethyl)pyridin-3-yl)cyclohexyl)methanol] are 7.02, below 5.00 and 5.66.
As for `OC(c1c(C2CC2)ccn2cncc12)C1CCC(c2cccc3ccccc23)CC1` (stereo not drawn) [Example C121, (7-cyclopropylimidazo[1,5-a]pyridin-8-yl)(4-(naphthalen-1-yl)cyclohexyl)methanol], the pIC50 on IDO1 [1] was 7.03. Also, the values for the negative-log EC50 (pEC50) (in assay [2]; on IDO1 [3]) were below 5.00 and 6.90, respectively.
Consider `OC(c1c(C2CC2)ccn2cncc12)C1CCC(c2ccc3ccccc3c2)CC1` (stereo not drawn) [Example C122, (7-cyclopropylimidazo[1,5-a]pyridin-8-yl)(4-(naphthalen-2-yl)cyclohexyl)methanol], for which the pIC50 on IDO1 [1] was 7.13. The pEC50 was below 5.00 in assay [2] and 6.42 at IDO1 [3].
For `OC(c1c(C2CC2)ccn2cncc12)C1CCC(c2ccc3c(c2)OCO3)CC1` (stereo not drawn) [Example C123, (4-(benzo[dl][1,3]dioxol-5-yl)cyclohexyl)(7-cyclopropylimidazo[1,5-a]pyridin-8-yl) methanol], the pIC50 on IDO1 [1] is 7.82. Besides, the figures for the pEC50 (in assay [2]; on IDO1 [3]) were below 5.00 and 6.43, respectively.
As to `NC(=O)c1ccc([C@H]2CC[C@H]([C@H](O)c3c(C4CC4)ccn4cncc34)CC2)cc1` [Example C124], the negative-log IC50 (pIC50) on IDO1 [1] is 7.25. The negative logarithm of the EC50 (pEC50) in assay [2] was below 5.00; on IDO1 [3], 6.63.
`OC(c1c(C2CC2)ccn2cncc12)C1CCC(c2cccc3ncccc23)CC1` (stereo not drawn) [Example C126, (7-cyclopropylimidazo[1,5-a]pyridin-8-yl)(4-(quinolin-5-yl)cyclohexyl)methanol]: the pIC50 on IDO1 [1] is 7.54. Besides, the pEC50 in assay [2] is below 5.00; at IDO1 [3], 7.52.
Turning to `OC(c1c(C2CC2)ccn2cncc12)C1CCC(c2ccnc3ccc(F)cc23)CC1` (stereo not drawn) [Example C128, (7-cyclopropylimidazo[1,5-a]pyridin-8-yl)(4-(6-fluoroquinolin-4-yl)cyclohexyl)methanol], on IDO1 [1], the pIC50 is 7.41. Also, the pEC50 in assay [2] is below 5.00; on IDO1 [3], 7.29.
Regarding `OC(c1c(C2CC2)ccn2cncc12)C1CCC(c2ccnc3c(F)cccc23)CC1` (stereo not drawn) [Example C129, (7-cyclopropylimidazo[1,5-a]pyridin-8-yl)(4-(8-fluoroquinolin-4-yl)cyclohexyl)methanol], the pIC50 at IDO1 [1] is 7.48. The negative-log EC50 (pEC50) was below 5.00 in assay [2] and 7.29 on IDO1 [3].
`OC(c1c(C2CC2)ccn2cncc12)C1CCC(c2ccnc3ccccc23)CC1` (stereo not drawn) [Example C130, (7-cyclopropylimidazo[1,5-a]pyridin-8-yl)(4-(quinolin-4-yl)cyclohexyl)methanol]: the pIC50 on IDO1 [1] was 7.44. For the same molecule, the negative-log EC50 (pEC50) in assay [2] is below 5.00; at IDO1 [3], 7.03.
As to `OC(c1c(C2CC2)ccn2cncc12)C1CCC(c2ccc(F)c(Cl)c2)CC1` (stereo not drawn) [Example C132, (4-(3-chloro-4-fluorophenyl)cyclohexyl)(7-cyclopropylimidazo[1,5-a]pyridin-8-yl)methanol], the negative-log IC50 (pIC50) on IDO1 [1] was 6.92. In addition, the negative-log EC50 (pEC50) in assay [2] is below 5.00; on IDO1 [3], 6.42.
Turning to `OC(c1c(C2CC2)ccn2cncc12)C1CCC(c2cccc(Cl)c2)CC1` (stereo not drawn) [Example C133, (4-(3-chlorophenyl)cyclohexyl)(7-cyclopropylimidazo[1,5-a]pyridin-8-yl)methanol], at IDO1 [1], the pIC50 was 7.06. The values for the pEC50 (in assay [2]; at IDO1 [3]) were below 5.00 and 6.59, respectively.
As for `OC(c1c(C2CC2)ccn2cncc12)C1CCN(c2ccccc2)CC1` (stereo not drawn) [Example C136, (7-cyclopropylimidazo[1,5-a]pyridin-8-yl)(1-phenylpiperidin-4-yl)methanol], the pIC50 on IDO1 [1] was 7.13. The negative-log EC50 (pEC50) is below 5.00 in assay [2] and 7.54 on IDO1 [3].
On to `OC(c1c(C2CC2)ccn2cncc12)C1CCN(c2ccc(F)cc2)CC1` (stereo not drawn) [Example C137, (7-cyclopropylimidazo[1,5-a]pyridin-8-yl)(1-(4-fluorophenyl)piperidin-4-yl)methanol], for which the pIC50 at IDO1 [1] was 7.10. Besides, the results for the pEC50 (in assay [2]; on IDO1 [3]) were below 5.00 and 6.75, respectively.
Regarding `OC(c1c(C2CC2)ccn2cncc12)C1CCN(c2cccc(F)c2)CC1` (stereo not drawn) [Example C138, (7-cyclopropylimidazo[1,5-a]pyridin-8-yl)(1-(3-fluorophenyl)piperidin-4-yl)methanol], the pIC50 at IDO1 [1] is 7.17. Besides, the values for the pEC50 (in assay [2]; at IDO1 [3]) were below 5.00 and 6.83, respectively.
Consider `OC(c1c(C2CC2)ccn2cncc12)C1CCN(C2CC2)CC1` (stereo not drawn) [Example C139, (7-cyclopropylimidazo[1,5-a]pyridin-8-yl)(1-cyclopropylpiperidin-4-yl)methanol], for which, on IDO1 [1], the negative logarithm of the IC50 (pIC50) is 6.05. In addition, the negative-log EC50 (pEC50) (in assay [2]; on IDO1 [3]) was below 5.00 in each case.
In the case of `OC(c1c(C2CC2)ccn2cncc12)C1CCN(c2cccc(Cl)c2)CC1` (stereo not drawn) [Example C140, (1-(3-chlorophenyl)piperidin-4-yl)(7-cyclopropylimidazo[1,5-a]pyridin-8-yl)methanol], the pIC50 at IDO1 [1] is 6.85. The pEC50 in assay [2] is below 5.00; on IDO1 [3] it was 6.52.
`OC(c1c(C2CC2)ccn2cncc12)C1CCN(c2ccc(F)c(F)c2)CC1` (stereo not drawn) [Example C141, (7-cyclopropylimidazo[1,5-a]pyridin-8-yl)(1-(3,4-difluorophenyl)piperidin-4-yl)methanol]: at IDO1 [1], the negative-log IC50 (pIC50) is 7.12. The pEC50 in assay [2] is below 5.00; on IDO1 [3], 6.98.
Regarding `COc1ccc(N2CCC(C(O)c3c(C4CC4)ccn4cncc34)CC2)cc1` (stereo not drawn) [Example C142, (7-cyclopropylimidazo[1,5-a]pyridin-8-yl)(1-(4-methoxyphenyl)piperidin-4-yl)methanol], at IDO1 [1], the pIC50 was 7.49. Besides, the negative logarithm of the EC50 (pEC50) in assay [2] is below 5.00; on IDO1 [3] it was 6.57.
In the case of `Oc1ccc(N2CCC(C(O)c3c(C4CC4)ccn4cncc34)CC2)cc1` (stereo not drawn) [Example C143], the negative logarithm of the IC50 (pIC50) at IDO1 [1] is 6.89. The pEC50 in assay [2] is below 5.00; on IDO1 [3], 5.96.
On the same counts, the results for `N#Cc1ccc(N2CCC(C(O)c3c(C4CC4)ccn4cncc34)CC2)cc1` (stereo not drawn) [Example C144, 4-(4-((7-cyclopropylimidazo[1,5-a]pyridin-8-yl)(hydroxy)methyl)piperidin-1-yl)benzonitrile] are 7.40, below 5.00 and 6.13.
